The nature of data set [1]: Apparent permeability from apical to basolateral side of human Caco2 cells at 10 uM after 90 mins by LC/MS/MS analysis. As to conditions: Caco-2. Format: ADME, cell-based.
Data set [2] can be described thus: Apparent permeability from basolateral to apical side of human Caco2 cells at 10 uM after 90 mins by LC/MS/MS analysis. Format: ADME, cell-based. As to conditions: Caco-2. For orientation: Passage across Caco-2 layers is used to estimate intestinal permeability.
Data set [3] can be described thus: Antiproliferative activity against human U87MG cells after 4 days by CellTiter-Glo assay. To be noted: U-87 MG, 96 h.
Data set [4] concerns the target Phosphatidylinositol 4,5-bisphosphate 3-kinase catalytic subunit alpha isoform (Homo sapiens, UniProt P42336). In words: Inhibition of PI3Kalpha (unknown origin) using PIP2/PS as substrate preincubated for 15 mins before substrate addition by luciferase-based luminescence assay.
Data set [5] can be described thus: Antiproliferative activity against human SKOV3 cells after 3 days by CellTiter-Glo assay. To be noted: SK-OV-3, 72 h. For orientation: ATP-based viability assays read luminescence as a measure of living cells.
Data set [6] is described as follows: Efflux ratio of apparent permeability from basolateral to apical side to apical to basolateral of human Caco2 cells. In kind it is ADME, cell-based. As to conditions: Caco-2.
Data set [7] deals with Serine/threonine-protein kinase mTOR (Homo sapiens, UniProt P42345). Kind of data set: Inhibition of mTOR (unknown origin) assessed as inhibition of 4EBP-1 phosphorylation preincubated for 15 mins before substrate addition by TR-FRET assay. A general note: TR-FRET usually uses a lanthanide donor and a delayed reading to cut background.

Bounds are passed on as bounds.

Phosphatidylinositol 4,5-bisphosphate 3-kinase catalytic subunit alpha isoform, sequence (P42336 whole entry, canonical isoform): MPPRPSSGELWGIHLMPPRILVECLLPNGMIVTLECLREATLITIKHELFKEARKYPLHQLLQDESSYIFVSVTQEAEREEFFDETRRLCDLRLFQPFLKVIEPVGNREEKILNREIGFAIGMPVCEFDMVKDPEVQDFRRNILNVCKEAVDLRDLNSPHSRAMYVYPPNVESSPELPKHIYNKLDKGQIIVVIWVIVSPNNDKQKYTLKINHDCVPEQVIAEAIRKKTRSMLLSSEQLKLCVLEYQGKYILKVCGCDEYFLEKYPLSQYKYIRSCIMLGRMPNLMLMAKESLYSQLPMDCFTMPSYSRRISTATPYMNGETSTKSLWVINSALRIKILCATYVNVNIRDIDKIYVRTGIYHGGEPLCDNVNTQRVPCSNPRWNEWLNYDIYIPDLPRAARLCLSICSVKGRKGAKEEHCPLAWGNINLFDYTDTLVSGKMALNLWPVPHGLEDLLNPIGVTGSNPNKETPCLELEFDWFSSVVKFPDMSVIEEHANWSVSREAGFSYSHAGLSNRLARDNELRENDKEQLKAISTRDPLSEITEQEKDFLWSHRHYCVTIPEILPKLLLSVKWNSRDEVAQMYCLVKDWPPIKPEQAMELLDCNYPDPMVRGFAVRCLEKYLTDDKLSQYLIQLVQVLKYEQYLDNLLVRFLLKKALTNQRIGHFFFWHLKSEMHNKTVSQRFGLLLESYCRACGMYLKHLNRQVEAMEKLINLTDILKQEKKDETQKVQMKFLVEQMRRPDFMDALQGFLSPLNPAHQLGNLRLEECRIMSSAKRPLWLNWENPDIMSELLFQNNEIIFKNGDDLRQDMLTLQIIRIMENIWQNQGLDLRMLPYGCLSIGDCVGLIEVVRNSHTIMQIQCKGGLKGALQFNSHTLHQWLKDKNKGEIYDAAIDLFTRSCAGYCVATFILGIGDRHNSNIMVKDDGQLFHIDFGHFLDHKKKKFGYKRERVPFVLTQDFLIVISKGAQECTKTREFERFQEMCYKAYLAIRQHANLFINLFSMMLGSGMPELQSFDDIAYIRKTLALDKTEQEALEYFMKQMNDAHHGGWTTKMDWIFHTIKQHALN

By Papp A→B is commonly meant the apparent permeability from the apical to the basolateral side of a cell layer. The term Papp B→A denotes how fast a substance crosses the layer from the basolateral side. By IC50 is commonly meant the concentration needed to halve the response being measured. What is called efflux ratio is a quotient of directional permeabilities that is used to spot active efflux. Regarding `COc1ncc(-c2cnc3nc(N)nc(C)c3c2)cc1NS(=O)(=O)c1ccc(C#N)cc1`, the Papp A→B at 1.5 h, 10 µM in data set [1] stood at 1.04 ×10⁻⁶ cm/s. In addition, the basolateral-to-apical permeability (Papp B→A) at 1.5 h, 10 µM in data set [2] is 14 ×10⁻⁶ cm/s. The IC50 turned out to be 2440 nM in data set [3], 2.82 nM in data set [4], 9150 nM in data set [5] and 45.8 nM in data set [7]. Besides, in data set [6], the efflux ratio was found to be 13.5. Regarding `COc1ncc(-c2cnc3nc(N)nc(C)c3c2)cc1NS(=O)(=O)c1ccc(C(F)(F)F)cc1`, the IC50 in data set [4] is 8.41 nM; in data set [7], 67 nM. For `COc1ccc(S(=O)(=O)Nc2cc(-c3cnc4nc(N)nc(C)c4c3)cnc2OC)cc1` the same measures were 67 nM and 180 nM. For `COc1ncc(-c2cnc3nc(N)nc(C)c3c2)cc1NS(=O)(=O)c1cccs1` the same measures were 23.3 nM and 245 nM. `Cc1nc(N)nc2ncc(-c3cnc4[nH]cc(NS(=O)(=O)c5ccc(F)cc5F)c4c3)cc12` had an IC50 in data set [4] of 76.5 nM. In data set [4], `Cc1nc(N)nc2ncc(-c3cnc4[nH]nc(NS(=O)(=O)c5ccc(F)cc5F)c4c3)cc12` had an IC50 of 82.4 nM.

For the compound `COc1ncc(-c2cnc3nc(N)nc(C)c3c2)cc1NS(=O)(=O)c1ccccc1`, the IC50 in data set [4] came out at 63.1 nM; in data set [7], 79.2 nM. As for `COc1ncc(-c2cnc3nc(N)nc(C)c3c2)cc1NC(=O)c1ccc(F)cc1F`, the IC50 in data set [4] is > 1000 nM. On the same count and under the same terms, then `COc1ncc(-c2cnc3nc(N)nc(C)c3c2)cc1NC(=O)Nc1ccc(F)cc1F`, with > 1000 nM. Still for that read-out and setting: then `COc1ncc(-c2cnc3nc(N)nc(C)c3c2)cn1`, with 218 nM; and `Cc1nc(N)nc2ncc(-c3cnc4[nH]ccc4c3)cc12`, with 38 nM; and `COc1ncc(-c2cnc3nc(N)nc(C)c3c2)cc1NS(C)(=O)=O`, with 145 nM. The same measure, in the same setting: next, `CCCCS(=O)(=O)Nc1cc(-c2cnc3nc(N)nc(C)c3c2)cnc1OC`: 47.5 nM. In data set [4], `COc1ncc(-c2cnc3nc(N)nc(C)c3c2)cc1NS(=O)(=O)C1CC1` yielded a half-inhibitory concentration (IC50) of 55.6 nM. The same measure, in the same setting: next, `COc1ccc(-c2cnc3nc(N)nc(C)c3c2)cn1`: 414 nM. On the same count and under the same terms, then `COc1ncc(-c2cnc3nc(N)nc(C)c3c2)cc1F`, with 117 nM; and `COc1ncc(-c2cnc3nc(N)nc(C)c3c2)cc1N`, with 632 nM.

With `COc1ncc(-c2cnc3nc(N)nc(C)c3c2)cc1NC(=O)C(F)(F)F`, the half-maximal inhibitory concentration (IC50) in data set [4] is > 1000 nM.

Consider `COc1ncc(-c2cnc3nc(N)nc(C)c3c2)cc1NS(=O)(=O)c1ccc(Cl)s1`, for which the IC50 in data set [4] was found to be 6.87 nM; in data set [7], 37.6 nM. For `COc1ncc(-c2cnc3nc(N)nc(C)c3c2)cc1NS(=O)(=O)c1cccnc1` the same measures were 7.82 nM and 111 nM. With `COc1ccc(-c2cc3c(C)nc(N)nc3n([C@H]3CC[C@H](OCCO)CC3)c2=O)cn1` [PF-04691502], in data set [1], the Papp A→B at 1.5 h, 10 µM turned out to be 25.7 ×10⁻⁶ cm/s. In data set [2], the Papp B→A at 1.5 h, 10 µM came to 32.5 ×10⁻⁶ cm/s. The IC50 in data set [3] was found to be 520 nM; in data set [5], 290 nM.

Source of the values: ChEMBL document CHEMBL3351642, “Synthesis and structure-activity relationships of PI3K/mTOR dual inhibitors from a series of 2-amino-4-methylpyrido[2,3-d]pyrimidine derivatives” (Bioorg Med Chem Lett, 2014).
